Consider 3 compounds from ChEMBL document CHEMBL5356982, “Truncated derivatives of amphidinol 3 reveal the functional role of polyol chain in sterol-recognition and pore formation” (Bioorg Med Chem Lett, 2024).

The subject of assay [1] is Lipid bilayer. Briefly: Binding affinity to 10% Ergosterol containing DOPC liposomes at 50 uM and measured upto 600 sec by SPR method.
A further assay deals with Aspergillus niger. Briefly: Antifungal activity against Aspergillus niger NBRC 31012 assessed as inhibition zone incubated for 2 days by disk diffusion method. Conditions: time 2 day. Format: functional. (Agar diffusion results depend on both activity and mobility in agar.)
For assay [2], the system named is Lipid bilayer. Briefly: Induction of pore formation in 10% Ergosterol containing DOPC liposomes assessed as calcein dye leakage by measuring calcein fluorescence at 27 uM by fluorescence microplate reader analysis.
In assay [3] the test system is Lipid bilayer. Briefly: Binding affinity to DOPC liposomes at 50 uM and measured upto 600 sec by SPR method. (Surface plasmon resonance follows binding to a sensor surface in real time, without labels.)
Assay [4] deals with Lipid bilayer. Briefly: Binding affinity to DOPC liposomes assessed as dissociation constant for first step at 50 uM and measured from 300 to 600 sec by SPR method.
Assay [5] addresses Lipid bilayer. Briefly: Binding affinity to 10% Ergosterol containing DOPC liposomes assessed as dissociation constant at equilibrium at 50 uM and measured from 300 to 600 sec by SPR method.
In assay [6] the target is Lipid bilayer. Briefly: Binding affinity to 10% Ergosterol containing DOPC liposomes assessed as dissociation constant for first step at 50 uM and measured from 300 to 600 sec by SPR method.
Assay [7] deals with Lipid bilayer. Briefly: Binding affinity to DOPC liposomes assessed as dissociation constant for second step at 50 uM and measured from 300 to 600 sec by SPR method.
Assay [8] deals with Lipid bilayer. Briefly: Induction of pore formation in DOPC liposomes assessed as calcein dye leakage by measuring calcein fluorescence at 27 uM by fluorescence microplate reader analysis.
The subject of assay [9] is Lipid bilayer. Briefly: Induction of pore formation in 10% Ergosterol containing DOPC liposomes assessed as calcein dye leakage by measuring calcein fluorescence by fluorescence microplate reader analysis.
For assay [10], the target named is Lipid bilayer. Briefly: Binding affinity to 10% Ergosterol containing DOPC liposomes assessed as dissociation constant for second step at 50 uM and measured from 300 to 600 sec by SPR method.
Assay [11] concerns the target Lipid bilayer. Briefly: Binding affinity to DOPC liposomes assessed as dissociation constant at equilibrium at 50 uM and measured from 300 to 600 sec by SPR method.
Assay [12] relates to Lipid bilayer. Briefly: Induction of pore formation in 10% Ergosterol containing DOPC liposomes assessed as calcein dye leakage by measuring calcein fluorescence at 10 uM by fluorescence microplate reader analysis.

A word on the Kd: it is the concentration at which binding is half-saturated. As a reminder, the EC50 is the concentration at which the effect is half-maximal.

Active and inactive are the calls of the source. The rule behind the calls is not given here. Some results are limits rather than exact numbers.

On to `C=C/C=C/CC/C=C/C=C/C=C/CC/C=C/[C@H](O)[C@H](O)[C@@H]1O[C@@H]([C@H](O)[C@H](O)C(=C)CC[C@@H](O)[C@@H]2C[C@H](O)[C@H](O)[C@@H]([C@H](O)[C@@H](O)CO)O2)C[C@@H](O)[C@H]1O`, for which the outcome in the assay with Lipid bilayer [1], in the assay with Lipid bilayer [2] and in the assay with Lipid bilayer [3] was inactive. In the assay on Aspergillus niger, the MIC is greater than 300 µg.

As for `C=C/C=C/CC/C=C/C=C/C=C/CC/C=C/[C@H](O)[C@H](O)[C@@H]1O[C@@H]([C@H](O)[C@H](O)C(=C)CC[C@@H](O)[C@@H]2C[C@H](O)[C@H](O)[C@@H]([C@H](O)[C@@H](O)/C=C(\C)CC[C@H](O)C[C@H](O)[C@H](O)[C@@H](C)C[C@H](O)[C@@H](O)CCCCC[C@@H](O)CCC[C@@H](O)/C=C/C[C@@H](O)/C=C/C[C@@H](O)CO)O2)C[C@@H](O)[C@H]1O`, the Kd at Lipid bilayer [4] is 980 µM; at Lipid bilayer [5] it was 0.00012 µM; at Lipid bilayer [6], 51 µM; at Lipid bilayer [7], 6300 µM; at Lipid bilayer [10], 2.4 µM; on Lipid bilayer [11] it was 6.9 µM. Moreover, the MIC in the assay on Aspergillus niger stood at 8 µg. For the same compound, the result in the assay on Lipid bilayer [8] was Active. Further, the EC50 in the assay with Lipid bilayer [9] was 2.96 µM.

As for `C=C/C=C/CC/C=C/C=C/C=C/CC/C=C/[C@H](O)[C@H](O)[C@@H]1O[C@@H]([C@H](O)[C@H](O)C(=C)CC[C@@H](O)[C@@H]2C[C@H](O)[C@H](O)[C@@H]([C@H](O)[C@@H](O)/C=C(\C)CC[C@H](O)C[C@H](O)[C@H](O)[C@@H](C)CCO)O2)C[C@@H](O)[C@H]1O`, the MIC in the assay with Aspergillus niger worked out at 20 µg. For the same compound, the values for the Kd at Lipid bilayer [5] and at Lipid bilayer [6] were 1 µM and 25 µM, respectively. For the same compound, the outcome with Lipid bilayer [12] was Active. For the same compound, the result in the assay on Lipid bilayer [2] and in the assay with Lipid bilayer [3] was inactive. Moreover, the step-2 equilibrium ratio at Lipid bilayer [10] was 0.044.
